This is an account of results in ChEMBL document CHEMBL1153239, “1-(3-Aryloxyaryl)benzimidazole sulfones are liver X receptor agonists” (Bioorg Med Chem Lett, 2010).

A short description of the data set: AUC (0 to last) in C57 mouse at 10 mg/kg, po. Type of data set: ADME, organism-based. Also on record: time 0 - last, dose 10 mg/kg, route oral. To be noted: plasma.

As for `Cc1nc2c(C(F)(F)F)cccc2n1-c1cccc(Oc2cccc(S(C)(=O)=O)c2)c1`, the AUC(0-t) (in general, exposure summed from dosing to a finite time, without extrapolation to infinity) came out at 12900 ng·h/mL.

Turning to `CCS(=O)(=O)c1cccc(Oc2cccc(-n3c(C)nc4c(Cl)cccc43)c2)c1`, the AUC(0-t) came to 1780 ng·h/mL.

The compound `CS(=O)(=O)c1cccc(Oc2cccc(-n3cnc4c(C(F)(F)F)cccc43)c2)c1` returned an AUC(0-t) of 12100 ng·h/mL.

`CCc1nc2c(C(F)(F)F)cccc2n1-c1cccc(Oc2cccc(S(C)(=O)=O)c2)c1`: the exposure AUC(0-t) was 1780 ng·h/mL.

As for `CCS(=O)(=O)c1cccc(Oc2cccc(-n3c(C)nc4c(C(F)(F)F)cccc43)c2)c1`, the AUC(0-t) turned out to be 2940 ng·h/mL.

`Cc1nc2c(Cl)cccc2n1-c1cccc(Oc2cccc(S(C)(=O)=O)c2)c1` had an AUC(0-t) of 1500 ng·h/mL.

For the compound `Cc1nc2c(C(F)(F)F)cccc2n1-c1cccc(Oc2cccc(S(=O)(=O)C(C)C)c2)c1`, the AUC(0-t) came out at 1290 ng·h/mL.

For the compound `CS(=O)(=O)c1cccc(Oc2cccc(-n3c(C(F)(F)F)nc4c(C(F)(F)F)cccc43)c2)c1`, the AUC(0-t) amounted to 14300 ng·h/mL.
